{"source": "ChEMBL document CHEMBL1150085", "about": "“Gummiferol, a cytotoxic polyacetylene from the leaves of Adenia gummifera” (1995)", "key": {"[1]": {"test_system": "Lu1", "experiment": "Cytotoxicity against human Lu1 cells", "assay_type": "functional", "settings": "read-out: ED50 (the source's name)"}, "[2]": {"experiment": "Cytotoxicity against human BC1 cells", "assay_type": "functional", "settings": "read-out: ED50 (the source's name)"}, "[3]": {"test_system": "KB", "experiment": "Cytotoxicity against human KB cells", "assay_type": "functional", "settings": "read-out: ED50 (the source's name)"}, "[4]": {"test_system": "ZR-75-1", "experiment": "Cytotoxicity against human ZR-75-1 cells", "assay_type": "functional", "settings": "read-out: ED50 (the source's name)"}, "[5]": {"test_system": "LNCaP", "experiment": "Cytotoxicity against human LNCAP cells", "assay_type": "functional", "settings": "read-out: ED50 (the source's name)"}, "[6]": {"test_system": "Col2", "experiment": "Cytotoxicity against human Col2 cells", "assay_type": "functional", "settings": "read-out: ED50 (the source's name)"}, "[7]": {"test_system": "SK-MEL-2", "experiment": "Cytotoxicity against human SK-MEL-2 cells", "assay_type": "functional", "settings": "read-out: ED50 (the source's name)"}, "[8]": {"test_system": "HT", "experiment": "Cytotoxicity against human HT cells", "assay_type": "functional", "settings": "read-out: ED50 (the source's name)"}, "[9]": {"test_system": "KB", "experiment": "Cytotoxicity against human vinblastine-positive KB cells", "assay_type": "functional", "settings": "read-out: ED50 (the source's name)"}, "[10]": {"test_system": "P388", "experiment": "Cytotoxicity against mouse P388 cells", "assay_type": "functional", "settings": "read-out: ED50 (the source's name)"}, "[11]": {"test_system": "KB", "experiment": "Cytotoxicity against human vinblastine-negative KB cells", "assay_type": "functional", "settings": "read-out: ED50 (the source's name)"}, "[12]": {"test_system": "A-431", "experiment": "Cytotoxicity against human A431 cells", "assay_type": "functional", "settings": "read-out: ED50 (the source's name)"}, "[13]": {"experiment": "Cytotoxicity against human U373 cells", "assay_type": "functional, U-373MG ATCC", "settings": "U373 MG, read-out: ED50 (the source's name)"}}, "data": [{"smiles": "CC(=O)OC/C=C/C1OC1C1OC1C#CC#CC#CCO", "note": "(stereo not drawn) [GUMMIFEROL]", "values": [{"measurement": "EC50", "setting": "[1]", "value": 0.9, "unit": "µg/mL"}, {"measurement": "EC50", "setting": "[2]", "value": 0.2, "unit": "µg/mL"}, {"measurement": "EC50", "setting": "[3]", "value": 0.3, "unit": "µg/mL"}, {"measurement": "EC50", "setting": "[4]", "value": 0.2, "unit": "µg/mL"}, {"measurement": "EC50", "setting": "[5]", "value": 0.2, "unit": "µg/mL"}, {"measurement": "EC50", "setting": "[6]", "value": 0.6, "unit": "µg/mL"}, {"measurement": "EC50", "setting": "[7]", "value": 1.3, "unit": "µg/mL"}, {"measurement": "EC50", "setting": "[8]", "value": 0.1, "unit": "µg/mL"}, {"measurement": "EC50", "setting": "[9]", "value": 0.3, "unit": "µg/mL"}, {"measurement": "EC50", "setting": "[10]", "value": 0.03, "unit": "µg/mL"}, {"measurement": "EC50", "setting": "[11]", "value": 0.4, "unit": "µg/mL"}, {"measurement": "EC50", "setting": "[12]", "value": 0.5, "unit": "µg/mL"}, {"measurement": "EC50", "setting": "[13]", "value": 0.05, "unit": "µg/mL"}]}]}
